Data published in US20250043299A1, “POINT MUTATIONS THAT BOOST AROMATIC AMINO ACID PRODUCTION AND CO2 ASSIMILATION IN PLANTS” (Wisconsin Alumni Research Foundation, priority 2021, published 2025).
pIC50: −log10 of the molar value. Entries after “also recorded” stand apart in the source; their conditions may differ.

Experiments:
[1] = biological target: T1, Arabidopsis thaliana DHS2 (SEQ ID NO:2) variant DHS2^A4 (sotaA4), G222S (Arabidopsis thaliana, UniProt Q00218, G222S); assay: Differential scanning fluorimetry protein-ligand affinity analysis, DHS2 sotaA4; type: binding; conditions: ligand at 1 mM
T1 construct: without the predicted plastid transit peptide (amino acid residues; 49-525, 34-507, and 52-527, respectively); made in house; host or cells: E. coli
T1 sequence (Q00218 34-507 G222S): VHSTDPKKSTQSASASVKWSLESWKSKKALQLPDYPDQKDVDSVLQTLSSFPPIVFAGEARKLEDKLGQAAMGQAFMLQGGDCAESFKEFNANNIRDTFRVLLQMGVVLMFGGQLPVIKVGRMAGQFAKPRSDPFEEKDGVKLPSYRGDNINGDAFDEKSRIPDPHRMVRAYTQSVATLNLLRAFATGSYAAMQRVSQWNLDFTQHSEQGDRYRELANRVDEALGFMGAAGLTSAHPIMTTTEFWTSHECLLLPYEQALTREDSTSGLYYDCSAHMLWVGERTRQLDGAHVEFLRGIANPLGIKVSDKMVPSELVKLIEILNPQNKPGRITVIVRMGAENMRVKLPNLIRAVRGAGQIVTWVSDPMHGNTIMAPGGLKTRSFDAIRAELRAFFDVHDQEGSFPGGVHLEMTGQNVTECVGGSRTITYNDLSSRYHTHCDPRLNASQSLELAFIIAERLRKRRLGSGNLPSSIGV
Method: (A) Simplified pathway map of AAAs and AAA-derived metabolites used in the effector screening. […] Data are means±SEM (n=3 independent assays).
(§1) To examine the impact of the sota mutations on the interaction between DHS and AAA effectors (FIG. 22), a differential scanning fluorimetry (DSF) analysis (48) was conducted using the recombinant DHS2^WT and DHS2^A4 proteins. […] The fluorescence signal was monitored during the stepwise increase in temperature (1° C. per minute from 25° C. to 95° C.). The Tm was calculated by nonlinear regression analysis using the Boltzmann sigmoidal equation (48).

[2] = biological target: T2, Arabidopsis thaliana DHS2 (AtDHS2), wild type (DHS2^WT), SEQ ID NO:2 (Arabidopsis thaliana, UniProt Q00218); conditions: reference 9; cited from earlier work
T2 construct: without the predicted plastid transit peptide (amino acid residues; 49-525, 34-507, and 52-527, respectively); made in house; host or cells: E. coli Rosetta-2
T2 sequence (Q00218 34-507): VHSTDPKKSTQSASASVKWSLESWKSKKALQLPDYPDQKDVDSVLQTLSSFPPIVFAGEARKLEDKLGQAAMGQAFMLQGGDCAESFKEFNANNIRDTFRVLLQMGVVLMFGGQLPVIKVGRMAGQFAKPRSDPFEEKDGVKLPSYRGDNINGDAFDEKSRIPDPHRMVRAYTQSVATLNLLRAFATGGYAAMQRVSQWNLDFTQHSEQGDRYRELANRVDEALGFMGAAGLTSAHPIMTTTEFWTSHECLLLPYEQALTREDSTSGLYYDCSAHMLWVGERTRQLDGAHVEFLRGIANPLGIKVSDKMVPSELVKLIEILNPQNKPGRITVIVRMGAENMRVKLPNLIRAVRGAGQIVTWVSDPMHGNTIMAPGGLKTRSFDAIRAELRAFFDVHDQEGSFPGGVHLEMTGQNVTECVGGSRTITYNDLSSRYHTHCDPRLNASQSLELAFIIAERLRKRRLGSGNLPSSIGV

DHS1^WT = biological target: T3, DHS1^WT (Arabidopsis thaliana, UniProt P29976); conditions: AAAs, chorismate, caffeate: from Yokoyama et al., Plant Cell, 2021; cited from earlier work
T3 construct: without the predicted plastid transit peptide (amino acid residues; 49-525, 34-507, and 52-527, respectively); made in house; host or cells: E. coli Rosetta-2
T3 sequence (P29976 49-525): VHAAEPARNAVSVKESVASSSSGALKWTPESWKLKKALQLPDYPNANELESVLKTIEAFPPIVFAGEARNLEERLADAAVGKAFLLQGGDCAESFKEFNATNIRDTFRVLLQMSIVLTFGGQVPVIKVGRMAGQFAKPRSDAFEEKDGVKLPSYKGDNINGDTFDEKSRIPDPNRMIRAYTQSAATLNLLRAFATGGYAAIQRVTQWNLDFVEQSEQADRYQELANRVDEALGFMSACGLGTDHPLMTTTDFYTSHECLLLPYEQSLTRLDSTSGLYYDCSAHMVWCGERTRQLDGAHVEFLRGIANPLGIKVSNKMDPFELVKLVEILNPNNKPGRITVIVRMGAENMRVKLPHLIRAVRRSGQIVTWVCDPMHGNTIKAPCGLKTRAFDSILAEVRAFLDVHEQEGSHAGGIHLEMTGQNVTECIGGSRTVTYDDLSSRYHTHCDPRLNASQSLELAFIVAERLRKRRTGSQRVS

DHS3^WT = conditions: AAAs: from Yokoyama et al., Plant Cell, 2021; cited from earlier work
DHS2^A4 = biological target: T4, DHS2^A4 (Arabidopsis thaliana, UniProt Q00218, G222S); assay: Differential scanning fluorimetry (DSF) protein-ligand affinity analysis, DHS2^A4; type: binding; conditions: ligand at 1 mM
T4 construct: without the predicted plastid transit peptide (amino acid residues; 49-525, 34-507, and 52-527, respectively); made in house; host or cells: E. coli
T4 sequence (Q00218 34-507 G222S): as the sequence (Q00218 34-507 G222S) above
Method: as §1

[3] = biological target: T5, Arabidopsis thaliana DHS1 (AtDHS1), wild type (DHS1^WT), SEQ ID NO:1 (Arabidopsis thaliana, UniProt P29976); assay: DHS enzyme assay with effector, Arabidopsis DHS1 WT; type: biochemical; conditions: DHS1^WT; 4 mM E4P, 4 mM PEP, pH 7.4, 37° C.
T5 construct: without the predicted plastid transit peptide (amino acid residues; 49-525, 34-507, and 52-527, respectively); made in house; host or cells: E. coli Rosetta-2
T5 sequence (P29976 49-525): as the sequence (P29976 49-525) above
Method: To generate DHS proteins with individual sota mutations via site-directed mutagenesis, these pET28a plasmid templates were diluted by 500-fold, mixed with 0.04 U/μL Phusion DNA polymerase (Thermo Scientific), 0.2 mM deoxynucleoside triphosphates (dNTPs), 1× Phusion reaction buffer (Thermo Scientific), and 0.5 μM forward and reverse mutagenesis primers (Table 10). The PCR reaction was run using the following protocol: 98° C. for 30 s followed by 20 cycles of 10 s at 98° C., 20 s at 70° C., 4.5 min at 72° C. with a final extension at 72° C. for 10 min. The PCR products were purified using a QIAquick Gel Extraction Kit (QIAGEN), treated with FastDigest DpnI (Thermo Scientific) to digest methylated plasmid template DNA for 20 min at 37° C., and transformed into E. coli cells. The mutagenized pET28a plasmids were sequenced to confirm that no errors were introduced during the mutagenesis process.
The DHS enzyme assays were conducted using the colorimetric method that we recently described (9). Briefly, the enzyme solution (7.7 μl) containing 50 mM Hepes (pH 7.4) was preincubated with an effector molecule(s) at room temperature for 15 min. For assays using recombinant protein and enzyme fractions isolated from plant leaves, 0.01 to 0.1 μg and approximately 50 μg of proteins were used, respectively. After adding 0.5 μl of 0.1 M dithiothreitol, the samples were further incubated at room temperature for 15 min. During these incubations, the substrate solution containing 50 mM Hepes (pH 7.4), 2 mM MnCl2, 4 mM E4P, and 4 mM PEP at final concentration was preheated at 37° C. The enzyme reaction was started by adding 6.8 μl of the substrate solution, then incubated at 37° C. for 30 min, and terminated by adding 30 μl of 0.6 M trichloroacetic acid. After a brief centrifugation, 5 μl of 200 mM NaIO4 (sodium meta-periodate) in 9 N H3PO4 was added to oxidize the enzymatic product and to incubate at 25° C. for 20 min. To stop the oxidation reaction, 20 μl of 0.75 M NaAsO2 (sodium arsenite), which was dissolved in 0.5 M Na2SO4 and 0.05 M H2SO4, was added and immediately mixed. […]

| Structure (SMILES) | binding (DSF) [1] | inhibition of DHS2 [2] | IC50 of effector molecule on DHS1^WT (DHS1^WT) | IC50 of effector molecule on DHS3^WT (DHS3^WT) | effect on melting temperature (Tm) / binding of DHS2^A4 (DHS2^A4) | pIC50 [3] |
| --- | --- | --- | --- | --- | --- | --- |
| N[C@@H](Cc1c[nH]c2ccccc12)C(=O)O [Trp, tryptophan] | still binds Tyr and Trp | inhibit Arabidopsis DHS2 | Not inhibited | Not inhibited | still binds; also recorded: significantly increased the Tm |  |
| O=C(O)C(=O)Cc1ccc(O)cc1 [HPP, 4-Hydroxyphenylpyruvate] |  |  |  |  |  | 3.52 |
